Reference: publication PMC8222276 (Communications Biology, 2021)

How the values were obtained:
[1] = biological target: T1, AM1 receptor (CLR-RAMP2) in HUVECs (Homo sapiens, UniProt O60895+Q16602); test: ERK1/2 phosphorylation in HUVECs; type: cell-based
T1 construct: HUVECs specifically express the AM1 receptor alone; host or cells: primary HUVECs
Method: (§1) Data are analysed using a three-parameter non-linear regression curve or the operational model of receptor agonism. g–h Signalling bias plots were calculated as ∆Log(τ/KA) (g) or ∆∆Log(τ/KA) (h) for each agonist and for each signalling pathway. […] Solid arrows indicate known pathways. Dashed arrows represent possible pathways.
Data are analysed using a three-parameter non-linear regression curve. All data represent mean ± SEM of n independent experiments. Statistical significance determined compared to control using an unpaired Student’s t test with Welch’s correction (*p < 0.05; **p < 0.01; ***p < 0.001).
Primary cells were grown in 6 well plates, on the day of the experiment media was replaced with serum free media 4 h prior to cell harvesting. Tyrpsin-EDTA was used to dissociate the cells and they were collected by centrifugation, counted and re-suspended HBSS/BSA (0.1%). Ligands were also diluted in HBSS/BSA. Cells were then plated on 384 well plates in 8 μl aliquots at a density of 20,000 cells/well. Next, ligands were added (4 μl) for 5 min stimulation at room temperature. Cells were then lysed as per to the manufacturer’s instructions with 4 μl of lysis buffer (Cisbio phosphor-ERK1/2 cellular assay kit, Invitrogen, UK) for 30 min shaking at room temperature. The 2 specific antibodies; were pre-mixed in a 1:1 ratio. 4 μl of this was added to each well and the plate incubated for a further 2 h. […] Antagonist studies were performed in the same way through co-stimulation with PTX (200 ng/ml), Rp-8-Br-cAMPS (100 μM), YM-254890 (100 nM), or ESI-09 (100 μM) as appropriate alongside control-treated cell.
(§2) All sample sizes were determined, and data analysed, in accordance with the guidelines described by Curtis M et al.[65]. All experiments were appropriately controlled using ‘system pathway’ agonists. If any of these pathway controls generated inappropriate responses, then the entire data set was removed from analysis. […] Data analysis for cAMP accumulation, Ca^2+i mobilisation, NO accumulation, pERK1/2 activation, and cell proliferation assays were performed in GraphPad Prism 8.4 (GraphPad Software, San Diego). Data were fitted to obtain concentration–response curves using either the three-parameter logistic equation using to obtain values of Emax and pEC50 or the operational model of agonism. Statistical differences were analysed using one-way ANOVA followed by Dunnett’s post-hoc (for comparisons amongst more than two groups) or unpaired Student’s t test with Welch’s correction (for comparison between two groups). To account for the day-to-day variation experienced from the cultured cells, we used the maximal level of cAMP accumulation from cells in response to 100 μM forskolin stimulation was used as a reference, 10 μM ionomycin for Ca^2+i assays, 10 μM phorbol 12-myristate 13-acetate (PMA) for pERK1/2 activation, 10 μM acetylcholine for NO production and 10 μM VEGF for cell proliferation. […] Where appropriate the operational model for receptor agonism[27] was used to obtain efficacy (τ) and equilibrium disassociation constant (KA) values. In both cases, this normalisation removes the variation due to differences in days but retains the variance for control values. The means of individual experiments were combined to generate the curves shown. Having obtained values for τ and KA these were then used to quantify signalling bias as the change in Log(τ/KA)[19],[28]. Error for this composite measure was propagated by applying Eq. 1.1 PooledSEM=(SEMA)^2+(SEMB)^2 Where, SEMA and SEMB are the standard error of measurement A and B.

[2] = biological target: T1, AM1 receptor (CLR-RAMP2) in HUVECs; test: total nitric oxide production in HUVECs; type: cell-based; details: HUVEC
Method: as §1
Endothelial cells and HCMs were cultured as above. 24 h prior to assay cells were plated on Costar 96-well black clear bottom plates at 40,000 cells/well. The assay was performed according to the manufacturer’s protocol. Briefly, cells pre-incubated with NO dye and assay buffer 1 (Fluorometric Nitric Oxide Assay Kit, Abcam, UK) for 30 min at 37 °C in 5% CO2. Any inhibitors requiring 30 min pre-treatment (YM/L-NAME/DMSO control) were added at this point. Ligand stimulation occurred immediately after this for 15 min at 37 °C in 5% CO2. Stain and ligand solution was removed, assay buffer II was added, and wells were read immediately. The absorbance was measured using a Tecan T200 (Thermo Fisher Scientific UK) reader with an excitation/emission of 540/590 nm. Endothelial cell responses were normalised to 10 μM acetylcholine. HCM responses were normalised to 10 μM isoproterenol[63],[64].
as §2

HUVECs = test: cell proliferation (72 h) of HUVECs; type: cell-based, human; details: HUVEC
Method: as §1
(§3) Both endothelial cell lines and HCMs were seeded at a density of 2500 cells/well in a clear flat bottom 96-well plate (Corning, UK) and incubated at 37 °C in 5% CO2. After 24 h, cells were exposed to test compounds or vehicle, in complete endothelial cell growth media (HUVECs) or myocyte growth media (HCMs). Cells were incubated for a further 72 h at 37 °C in 5% CO2. After 72 h incubation, 5 μl of Cell Counting Kit–8 (CCK-8, Sigma, UK) was added to each well and cells were then incubated for another 2 h at 37 °C in 5% CO2 and in the dark[61]. The absorbance of each well was measured using a Mithras LB940 microplate reader with an excitation of 450 nm. The absorbance is directly proportional to the number of viable cells. Cell proliferation was calculated as a percentage of number of cells treated with vehicle alone.
as §2

HUAECs = test: cell proliferation (72 h) of HUAECs; type: cell-based, human; details: HUAEC
Method: as §3, §2
(1 picture or pasted object on this page, not shown here)

[3] = test system: human cardiomyocytes (HCMs); test: cell proliferation (72 h) of HCMs; type: cell-based; details: HCM
Method: Data are analysed using a three-parameter non-linear regression curve or the operational model of receptor agonism. g, h Signalling bias plots were calculated as ∆Log(τ/KA) (g) or ∆∆Log(τ/KA) (h) for each agonist and for each signalling pathway. […] All data represent mean ± SEM for n repeats.
as §3, §2

[4] = pERK1/2, HUVEC, operational model, mean ± SEM
[5] = NO, operational model, mean ± SEM
[6] = Growth, calculated from Table S1
[7] = proliferation, 72 h, CCK-8, mean ± SEM
[8] = proliferation, 72 h, mean ± SEM of 3-6 data sets
[9] = proliferation, operational model, mean ± SEM

T1 sequence (Q16602 23-461): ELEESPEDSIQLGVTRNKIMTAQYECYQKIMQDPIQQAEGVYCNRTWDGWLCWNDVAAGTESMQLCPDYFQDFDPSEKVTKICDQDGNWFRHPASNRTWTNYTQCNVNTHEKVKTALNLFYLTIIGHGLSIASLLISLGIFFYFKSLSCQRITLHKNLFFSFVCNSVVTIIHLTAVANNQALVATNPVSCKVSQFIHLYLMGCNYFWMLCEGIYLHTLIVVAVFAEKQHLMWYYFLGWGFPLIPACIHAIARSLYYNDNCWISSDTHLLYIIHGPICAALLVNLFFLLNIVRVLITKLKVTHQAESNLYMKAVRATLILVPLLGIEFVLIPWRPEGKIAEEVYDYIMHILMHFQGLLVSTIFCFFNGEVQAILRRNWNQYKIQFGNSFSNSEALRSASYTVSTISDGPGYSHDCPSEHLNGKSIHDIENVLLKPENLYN
T1 sequence (O60895 43-175): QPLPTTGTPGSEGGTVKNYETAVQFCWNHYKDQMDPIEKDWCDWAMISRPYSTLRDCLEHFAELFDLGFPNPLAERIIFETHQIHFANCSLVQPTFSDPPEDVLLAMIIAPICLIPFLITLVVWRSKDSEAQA

CSCC[C@H](NC(=O)[C@H](CC(C)C)NC(=O)[C@H](CCC(N)=O)NC(=O)[C@H](Cc1c[nH]c2ccccc12)NC(=O)[C@H](CC(C)C)NC(=O)[C@H](CCCNC(=N)N)NC(=O)[C@H](Cc1c[nH]cn1)NC(=O)[C@H](CO)NC(=O)[C@H](CC(C)C)NC(=O)[C@H](CC(N)=O)NC(=O)[C@H](CCC(N)=O)NC(=O)[C@@H](NC(=O)[C@H](CCC(N)=O)NC(=O)[C@@H]1CSSC[C@H](NC(=O)CNC(=O)[C@@H](NC(=O)[C@H](CCCNC(=N)N)NC(=O)[C@H](CC(C)C)NC(=O)[C@H](CC(C)C)NC(=O)[C@H](CCC(N)=O)NC(=O)[C@H](C)NC(=O)[C@H](CCC(N)=O)NC(=O)[C@@H](N)[C@@H](C)O)C(C)C)C(=O)N[C@@H](C(C)C)C(=O)N[C@@H](CC(C)C)C(=O)NCC(=O)N[C@@H]([C@@H](C)O)C(=O)N1)C(C)C)C(=O)NCC(=O)N1CCC[C@H]1C(=O)N[C@@H](C)C(=O)NCC(=O)N[C@@H](CCCNC(=N)N)C(=O)N[C@@H](CCC(N)=O)C(=O)N[C@@H](CC(=O)O)C(=O)N[C@@H](CO)C(=O)N[C@@H](C)C(=O)N1CCC[C@H]1C(=O)N[C@H](C(=O)N[C@@H](CC(=O)O)C(=O)N1CCC[C@H]1C(=O)N[C@@H](CO)C(=O)N[C@@H](CO)C(=O)N1CCC[C@H]1C(=O)N[C@@H](Cc1c[nH]cn1)C(=O)N[C@@H](CO)C(=O)N[C@@H](Cc1ccc(O)cc1)C(N)=O)C(C)C [AM2, adrenomedullin 2]
Emax ([1]; HUVEC): 33.3 ± 4.59% | mechanism of ERK1/2 stimulation ([1]; HUVEC): mediated in a Gi/o-dependent manner | effect of PTX on ERK1/2 phosphorylation ([1]; HUVEC, PTX): suppression of ERK1/2 phosphorylation | Transducer coefficient Log(τ/KA) ([1]; pERK1/2, HUVEC, calculated from Table S1): 5.06±0.21 | logτ [1, 4]: -0.35±0.08 | pKA [1, 4]: 5.41±0.19 | Emax [2]: 82.1 ± 4.62% | order of potencies for NO synthesis [2]: order of potencies AM2 > AM > CGRP | Transducer coefficient Log(τ/KA) ([2]; NO, calculated from Table S1): 6.80±0.17 | logτ [2, 5]: 0.65±0.09 | pKA [2, 5]: 6.15±0.15 | Transducer coefficient Log(τ/KA) (HUVECs; [6]): 5.74±0.92 | Emax (HUVECs; [7]): 103.74±1.43% | pEC50 (HUVECs; [8]): 7.06±0.9 | logτ (HUVECs; [9]): -1.29±0.20 | pKA (HUVECs; [9]): 7.03±0.90 | Transducer coefficient Log(τ/KA) (HUAECs; [6]): 5.81±1.89 | Emax (HUAECs; [7]): 111.68±1.62% | pEC50 (HUAECs; [8]): 6.87±0.48 | logτ (HUAECs; [9]): -1.10±0.26 | pKA (HUAECs; [9]): 6.91±1.87 | Transducer coefficient Log(τ/KA) ([3]; Growth, calculated from Table S2): 5.78±0.60 | Emax [3, 7]: 114.68±3.58% | pEC50 [3, 8]: 6.48±0.58 | logτ [3, 9]: -0.60±0.12 | pKA [3, 9]: 6.38±0.59
